The values below come from US4740233A, “Substituted 1,2,4-triazolo[1,5-a]-pyrimidine-2-sulfonamides and compositions and methods of controlling undesired vegetation and suppressing the nitrification of ammonium nitrogen in soil” (The Dow Chemical Company, priority 1986, dated 1988).

One experiment relates to pigweed. Nature of the experiment: Preemergent control of plant species. It is filed as in vivo, Amaranthus spp. As to conditions: Amaranthus retroflexus, pre-emergence, 336 h; 0.25 lb/acre; read-out: percent preemergent control. On the procedure: (§1) The seeds of various species of plants were planted in beds of good agricultural soil in a greenhouse. A number of compositions of the present invention, generally in the nature of an aqueous emulsion, were applied at rates listed in the table so as to deposit a predetermined amount of active ingredients uniformly throughout the surface of the bed. Another seed bed was treated only with water to serve as a control. After treatment the seed beds were maintained for two weeks under greenhouse conditions conducive for good plant growth and watered as necessary. Control refers to the reduction in growth compared to the observed results of the same untreated species.

The next experiment has as its system wheat. Nature of the experiment: Preemergent control of plant species. The class given is in vivo, Triticum aestivum. As to conditions: Triticum aestivum, pre-emergence, 336 h; 0.25 lb/acre; read-out: percent preemergent control. The gist of the method:
(§2)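 Growth reduction relative to untreated plants of the same species, assessed two weeks after treatment, defines the control value. Compositions, mostly aqueous emulsions, were deposited uniformly on seeded greenhouse soil beds at the tabulated rates, with a water-treated bed as reference.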

For a further experiment, the system named is yellow foxtail. Kind of experiment: Preemergent control of plant species. The conditions noted are these: Setaria, pre-emergence, 336 h; 0.25 lb/acre; read-out: percent preemergent control. The class given is in vivo, Setaria lutescens. The gist of the method:
as §2

The subject of a further experiment is sugar beet. Kind of experiment: Preemergent control of plant species. It is filed as in vivo, Beta saccharifera. As to conditions: Beta vulgaris, pre-emergence, 336 h; 0.25 lb/acre; read-out: percent preemergent control. A digest of the protocol: as §2
Another experiment deals with jimsonweed. Nature of the experiment: Preemergent control of plant species. As to conditions: Datura stramonium, pre-emergence, 336 h; 0.25 lb/acre; read-out: percent preemergent control. It is filed as in vivo, Datura stramonium. A digest of the protocol: as §2
For another experiment, the system named is sorghum. Kind of experiment: Preemergent control of plant species. The class given is in vivo, Sorghum vulgare. The conditions noted are these: Sorghum, pre-emergence, 336 h; 0.25 lb/acre; read-out: percent preemergent control. The gist of the method:
as §2

The next experiment deals with yellow nutsedge. Nature of the experiment: Preemergent control of plant species. It is filed as in vivo, Cyperus esculentus. As to conditions: Cyperus, pre-emergence, 336 h; 0.25 lb/acre; read-out: percent preemergent control. The gist of the method:
as §2

The test system of the next experiment is rice. Kind of experiment: Preemergent control of plant species. The class given is in vivo, Oryza sativa. As to conditions: Oryza sativa, pre-emergence, 336 h; 0.25 lb/acre; read-out: percent preemergent control. A digest of the protocol: as §2
A further experiment has as its system annual morning glory. Nature of the experiment: Preemergent control of plant species. It is filed as in vivo, Ipomoea spp. The conditions noted are these: Ipomoea, pre-emergence, 336 h; 0.25 lb/acre; read-out: percent preemergent control. A digest of the protocol:
as §2

A further experiment relates to soybean. Nature of the experiment: Preemergent control of plant species. The class given is in vivo, Glycine max. The conditions noted are these: Glycine max, pre-emergence, 336 h; 0.25 lb/acre; read-out: percent preemergent control. A digest of the protocol:
as §2

Another experiment relates to barnyardgrass. Kind of experiment: Preemergent control of plant species. The class given is in vivo, Echinochloa crusgalli. As to conditions: Echinochloa crus-galli, pre-emergence, 336 h; 0.25 lb/acre; read-out: percent preemergent control. A digest of the protocol:
as §2

The subject of a further experiment is crabgrass. Nature of the experiment: Preemergent control of plant species. The conditions noted are these: Digitaria sanguinalis, pre-emergence, 336 h; 0.25 lb/acre; read-out: percent preemergent control. The class given is in vivo, Digitaria spp. The method, then:
as §1

A further experiment has as its system corn. Nature of the experiment: Preemergent control of plant species. It is filed as in vivo, Zea mays. As to conditions: Zea mays, pre-emergence, 336 h; 0.25 lb/acre; read-out: percent preemergent control. A digest of the protocol:
as §2

The next experiment has as its system wild oats. Kind of experiment: Preemergent control of plant species. The class given is in vivo. As to conditions: Avena fatua, pre-emergence, 336 h; 0.25 lb/acre; read-out: percent preemergent control. The gist of the method: as §2
For another experiment, the system named is cotton. Nature of the experiment: Preemergent control of plant species. The class given is in vivo, Gossypium spp. The conditions noted are these: Gossypium hirsutum, pre-emergence, 336 h; 0.25 lb/acre; read-out: percent preemergent control. The gist of the method:
as §2

The next experiment has as its system johnson grass. Kind of experiment: Preemergent control of plant species. The class given is in vivo, Sorghum halepense. The conditions noted are these: Sorghum halepense, pre-emergence, 336 h; 0.25 lb/acre; read-out: percent preemergent control. A digest of the protocol: as §2
Another experiment concerns rape. Kind of experiment: Preemergent control of plant species. The conditions noted are these: Brassica napus, pre-emergence, 336 h; 0.25 lb/acre; read-out: percent preemergent control. It is filed as in vivo, Brassica napus. The gist of the method:
as §2

The next experiment relates to velvetleaf. Kind of experiment: Preemergent control of plant species. The class given is in vivo, Abutilon theophrasti. As to conditions: Abutilon theophrasti, pre-emergence, 336 h; 0.25 lb/acre; read-out: percent preemergent control. A digest of the protocol:
as §2

Experiment [1] has as its system nitrification of ammonium nitrogen. Kind of experiment: Suppression of nitrification of ammonium nitrogen in soil. The conditions noted are these: 27° C. The gist of the method:
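Soil (20 g) moistened to its 1/3 bar tension value, mixed with test chemical and incubated sealed for two weeks at 27° C. Nitrate extracted with ammonium sulfate solution and measured by nitrate-specific ion electrode; value given as % NH4-N remaining.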

With `Cc1cc(C)n2nc(S(=O)(=O)Nc3cccc(Cl)c3Cl)nc2n1` [Compound 19], the pest or weed control at 280.212 g/ha was found to be 90% in the experiment with pigweed; 0% in the experiment on yellow foxtail; 0% with jimsonweed; 40% in the experiment with yellow nutsedge; 50% with annual morning glory; 0% with barnyardgrass. In addition, the pest or weed control at 280.212 g/ha was 20% in the experiment on crabgrass, 0% with wild oats, 0% in the experiment with johnson grass and 70% in the experiment on velvetleaf. Further, the plant injury at 280.212 g/ha worked out at 0% with wheat; 90% with sugar beet; 0% in the experiment on sorghum; 20% in the experiment with rice; 20% with soybean; 0% in the experiment on corn. Moreover, the plant injury at 280.212 g/ha with cotton was determined as 90%; in the experiment on rape, 95%.

For `Cc1cc(C)n2nc(S(=O)(=O)Nc3ccccc3C(N)=O)nc2n1` [Compound 37], the pest or weed control at 280.212 g/ha in the experiment with pigweed came to 100%; in the experiment with yellow foxtail, 97%; in the experiment with jimsonweed it was 100%; in the experiment on yellow nutsedge, 100%; in the experiment with annual morning glory, 90%; in the experiment on barnyardgrass, 97%. Besides, the pest or weed control at 280.212 g/ha turned out to be 70% in the experiment with crabgrass, 0% in the experiment on wild oats, 95% in the experiment on johnson grass and 95% with velvetleaf. Moreover, the plant injury at 280.212 g/ha in the experiment with wheat turned out to be 0%; in the experiment on sugar beet, 97%; in the experiment on sorghum it was 95%; in the experiment on rice it was 97%; with soybean it was 95%; in the experiment with corn, 95%. In addition, the plant injury at 280.212 g/ha in the experiment on cotton and with rape was 95% throughout. In addition, the “% NH4-N Remaining After 2 Weeks Incubation” value in experiment [1] (0.01 ppm) was 0%; in [1] (0.1 ppm) it was 0%; in [1] (1 ppm), 7%; in [1] (10 ppm) it was 44%.

Take `Cc1cc(C)n2nc(S(=O)(=O)Nc3c(Cl)cc(F)cc3Cl)nc2n1` [Compound 44]: the pest or weed control at 280.212 g/ha was 95% in the experiment on pigweed; 70% with yellow foxtail; 100% in the experiment on jimsonweed; 90% with yellow nutsedge; 20% in the experiment with annual morning glory; 40% with barnyardgrass. The pest or weed control at 280.212 g/ha is 90% with crabgrass, 40% in the experiment with wild oats, 80% in the experiment on johnson grass and 0% in the experiment on velvetleaf. Besides, the plant injury at 280.212 g/ha in the experiment on wheat was found to be 70%; in the experiment with sugar beet, 97%; in the experiment with sorghum, 93%; in the experiment on rice, 70%; in the experiment with soybean it was 80%; with corn it was 10%. In addition, the plant injury at 280.212 g/ha in the experiment with cotton amounted to 85%; in the experiment with rape, 93%. Also, the “% NH4-N Remaining After 2 Weeks Incubation” value in experiment [1] (0.01 ppm) amounted to 0%; in experiment [1] (0.1 ppm), 42%; in experiment [1] (1 ppm) it was 71%; in experiment [1] (10 ppm), 95%.

Turning to `COCc1cccc(Cl)c1NS(=O)(=O)c1nc2nc(C)cc(C)n2n1` [Compound 91], the pest or weed control at 280.212 g/ha in the experiment on pigweed was found to be 100%; with yellow foxtail, 100%; in the experiment on jimsonweed, 40%; with crabgrass, 40%; with wild oats it was 70%; in the experiment on johnson grass, 0%. Also, the pest or weed control at 280.212 g/ha in the experiment on velvetleaf was 70%. Moreover, the plant injury at 280.212 g/ha in the experiment with wheat was found to be 20%; with sugar beet, 100%; in the experiment with sorghum, 0%; in the experiment on rice, 50%; in the experiment with soybean it was 100%; with corn, 30%. Moreover, the plant injury at 280.212 g/ha in the experiment with cotton and in the experiment on rape was 100% throughout. Also, the “% NH4-N Remaining After 2 Weeks Incubation” value in [1] (0.06 ppm) was found to be 15%; in experiment [1] (0.25 ppm), 46%; in experiment [1] (1 ppm), 55%; in experiment [1] (4 ppm), 80%.

As for `Cc1nc2nc(S(=O)(=O)Nc3ccccc3C(F)(F)F)nn2c(C)c1C` [Compound 112], the pest or weed control at 280.212 g/ha with pigweed was 90%; in the experiment on yellow foxtail it was 0%; in the experiment with jimsonweed, 0%; in the experiment on yellow nutsedge it was 90%; with annual morning glory it was 80%; with barnyardgrass, 0%. In addition, the pest or weed control at 280.212 g/ha in the experiment on crabgrass came out at 97%; with wild oats it was 90%; in the experiment on johnson grass, 30%; with velvetleaf, 20%. Also, the plant injury at 280.212 g/ha in the experiment with wheat turned out to be 0%; in the experiment with sugar beet, 99%; in the experiment with sorghum, 20%; in the experiment on rice it was 25%; in the experiment with soybean, 0%; with corn, 50%. Moreover, the plant injury at 280.212 g/ha turned out to be 80% in the experiment with cotton and 85% with rape. Also, the “% NH4-N Remaining After 2 Weeks Incubation” value in [1] (0.06 ppm) stood at 31%; in experiment [1] (0.25 ppm), 53%; in [1] (1 ppm), 65%; in experiment [1] (4 ppm), 72%.

Take `Cc1cccc(Cl)c1NS(=O)(=O)c1nc2nc(C)c(C)c(C)n2n1` [Compound 113]: the pest or weed control at 280.212 g/ha with pigweed is 100%; with yellow foxtail it was 50%; in the experiment with jimsonweed, 0%; in the experiment with yellow nutsedge it was 50%; with annual morning glory, 0%; in the experiment on barnyardgrass it was 20%. Also, the pest or weed control at 280.212 g/ha was found to be 90% in the experiment with crabgrass, 0% in the experiment on wild oats, 50% with johnson grass and 60% in the experiment with velvetleaf. Further, the plant injury at 280.212 g/ha with wheat amounted to 0%; in the experiment with sugar beet it was 100%; in the experiment on sorghum it was 0%; in the experiment on rice, 40%; in the experiment with soybean, 0%; with corn, 0%. For the same compound, the plant injury at 280.212 g/ha with cotton is 30%; in the experiment with rape, 90%. Moreover, the “% NH4-N Remaining After 2 Weeks Incubation” value was determined as 16% in [1] (0.06 ppm), 39% in experiment [1] (0.25 ppm), 69% in experiment [1] (1 ppm) and 86% in [1] (4 ppm).
